The values below come from PMC9936538, “Structure–Activity Relationship of N-Ethyl-Hexedrone Analogues: Role of the α-Carbon Side-Chain Length in the Mechanism of Action, Cytotoxicity, and Behavioral Effects in Mice” (ACS Chemical Neuroscience, 2023).

The structures appear in SMILES notation.

For one data set, the target named is T1, hDAT (Homo sapiens, UniProt Q01959).
T1 construct: expressed in transfected cells; host or cells: HEK293
The experiment in a line: Monoamine uptake inhibition, [3H]MPP+ uptake at hDAT in transfected HEK293 cells. It counts as cell-based. As to conditions: for hDAT/hSERT inhibition ratio: 1/DAT IC50:1/SERT IC50, calculated with the original raw data. The method, then: (§1) Human embryonic kidney cells (HEK293) stably transfected with the human DAT and SERT were used for both the uptake inhibition and transporter binding assays.[6] Cells were cultured in DMEM supplemented with heat-inactivated 10% fetal bovine serum (FBS), […], and 100 U/mL penicillin at 37 °C in a 5% CO2 humidified atmosphere. Geneticin (G418; 50 μg/mL) was added to maintain the selection process. Upon approximately 80% confluence, cells were washed with 5 mL of phosphate-buffered saline (PBS) and 1 mL of trypsin/EDTA was added. After 3 min, 9 mL of DMEM was added to stop cell trypsinization. If necessary, centrifugation was performed to pellet the cells. Cells were then resuspended, counted, and seeded onto poly-D-lysine coated (24 h/prior to the experiment) 96-well plates at a density of 0.36 million cells per well for the uptake inhibition assays.
(§2) Assays were performed as previously described.[8] On the test day, the medium was removed from the cell culture 96-well plates and immediately replaced with 200 μL of Krebs-HEPES-buffer (KHB; 10 mM HEPES, 120 mM NaCl, 3 mM KCl, 2 mM CaCl2·2H2O, 2 mM MgCl2·6H2O supplemented with 20 mM D-glucose; pH 7.3). To ensure equilibrated conditions, cells were incubated with different concentrations of the drugs in KHB at a final volume of 50 μL/well for 5 min (preincubation). The preincubation solution was removed, and cells were incubated with the tritiated compounds, 0.02 μM [^3H]MPP^+ for hDAT and 0.1 μM [^3H]5-HT for hSERT, together with various concentrations of the test drugs in KHB. The uptake incubation times were 3 min for hDAT and 1 min for hSERT. The reaction was stopped by rapid removal of the incubation solution and washout with ice-cold KHB. Cells were lysed with 1% sodium dodecyl sulfate, and lysates were subsequently transferred to vials containing scintillation fluid. Radioactivity was quantified with a beta-scintillation counter (PerkinElmer, Waltham, MA, USA). The uptake in the absence of the test drugs was normalized to 100%, and the uptake in the presence of various concentrations of cathinones was expressed as a percentage thereof. […] Four independent experiments carried out on triplicates were performed.
(§3) For in vitro assays, data were normalized with 100% defined as the mean of the technical replicates in the control group and expressed as mean ± SEM. Nonlinear regression was used to fit the different competition curves. Data were plotted and best fitted to a sigmoidal dose–response curve from which an IC50 or LC50 value was obtained. Transporter ratios were calculated as (1/DAT IC50: 1/SERT IC50). […] The Cheng–Prusoff equation was used to calculate Ki (affinity): Ki = EC50/(1 + [radioligand concentration/Kd]).[65] The sample size for behavioral experiments was determined using GPower software. One-way or two-way ANOVA, and subsequent Tukey’s posthoc test, conducted only if F was significant, was used to determine the effects of cathinones on cytotoxicity, HLA, OF, and CPP experiments. The α error probability was set at 0.05 (p < 0.05). The exact size group for the behavioral experiments is shown in the corresponding figure legends. All statistic calculations were carried out using GraphPad Prism (GraphPad software, San Diego, CA, USA).

Another data set addresses T2, hSERT (Homo sapiens, UniProt P31645).
T2 construct: expressed in transfected cells; host or cells: HEK293
The experiment in a line: Monoamine uptake inhibition, [3H]5-HT uptake at hSERT in transfected HEK293 cells. The format is cell-based. How it is done:
as §1, §2, §3

The nature of data set [1]: Cytotoxicity in NGF-differentiated PC12 cells, WST-8 cell viability assay. It counts as cell-based. Conditions: rat, WST-8, 24 h exposure, mean ± SEM of 3–4 experiments, read-out: LC50 (approximated), cell viability. The method, then: Pheochromocytoma cells (PC12) cells were cultured in collagen-coated dishes in DMEM supplemented with heat-inactivated 5% FBS, 10% horse serum, 10 mM HEPES, 2 mM glutamine, 25 UI/mL penicillin, and 25 μg/mL streptomycin (maintenance medium) and grown at 37 °C in a humidified 5% CO2 atmosphere. Cell differentiation was performed as described[54] with minor modifications. In brief, cells were seeded (250.000 cells/well) onto 96-well plates in the maintenance medium, and after 24 h, the medium was changed to a differentiation medium containing 50 ng/mL NGF. After 24 h, neurite outgrowth was already apparent.
Treatments with different concentrations of the drug in DMEM were performed 48 h after cell differentiation. 10 μL of the tested drug was added per well, in triplicate, and cells were incubated for 24 h at 37 °C in a humidified 5% CO2 atmosphere. Thereafter, the medium was removed and immediately replaced with a maintenance medium. 10 μL of the CCK-8 Cell Counting Kit, based on 2-(2-methoxy-4-nitrophenyl)-3-(4-nitrophenyl)-5-(2,4-disulfophenyl)-2H-tetrazolium, monosodium salt (WST-8), was added per well and was incubated for 2 h at 37 °C in a humidified 5% CO2 atmosphere. This method has been defined as a good alternative to the 3-(4,5-dimethylthiazol-2-yl)-2,5-diphenyltetrazoliumbromide (MTT) assay.[63] Optical density was measured at 450 nm, using a microplate reader.
For in vitro assays, data were normalized with 100% defined as the mean of the technical replicates in the control group and expressed as mean ± SEM. Nonlinear regression was used to fit the different competition curves. Data were plotted and best fitted to a sigmoidal dose–response curve from which an IC50 or LC50 value was obtained. Transporter ratios were calculated as (1/DAT IC50: 1/SERT IC50). Although IC50 values at inhibiting 5-HT uptake for some compounds tested are expressed as >100 μM for clarity purposes, DAT/SERT ratios were calculated with the original raw data. The Cheng–Prusoff equation was used to calculate Ki (affinity): Ki = EC50/(1 + [radioligand concentration/Kd]).[65] The sample size for behavioral experiments was determined using GPower software. One-way or two-way ANOVA, and subsequent Tukey’s posthoc test, conducted only if F was significant, was used to determine the effects of cathinones on cytotoxicity, HLA, OF, and CPP experiments. The α error probability was set at 0.05 (p < 0.05). The exact size group for the behavioral experiments is shown in the corresponding figure legends. All statistic calculations were carried out using GraphPad Prism (GraphPad software, San Diego, CA, USA).

Data set [2] has as its system Swiss CD-1 mice. Details: method as in PMID 33155384. Conditions: 10 and 25 mg/kg injections; cited from earlier work.
Data set [3] concerns Swiss CD-1 mice. Details: method as in PMID 32535718. Conditions: 4 and 16 mg/kg subcutaneous injections; cited from earlier work.

T1 sequence (Q01959 whole entry): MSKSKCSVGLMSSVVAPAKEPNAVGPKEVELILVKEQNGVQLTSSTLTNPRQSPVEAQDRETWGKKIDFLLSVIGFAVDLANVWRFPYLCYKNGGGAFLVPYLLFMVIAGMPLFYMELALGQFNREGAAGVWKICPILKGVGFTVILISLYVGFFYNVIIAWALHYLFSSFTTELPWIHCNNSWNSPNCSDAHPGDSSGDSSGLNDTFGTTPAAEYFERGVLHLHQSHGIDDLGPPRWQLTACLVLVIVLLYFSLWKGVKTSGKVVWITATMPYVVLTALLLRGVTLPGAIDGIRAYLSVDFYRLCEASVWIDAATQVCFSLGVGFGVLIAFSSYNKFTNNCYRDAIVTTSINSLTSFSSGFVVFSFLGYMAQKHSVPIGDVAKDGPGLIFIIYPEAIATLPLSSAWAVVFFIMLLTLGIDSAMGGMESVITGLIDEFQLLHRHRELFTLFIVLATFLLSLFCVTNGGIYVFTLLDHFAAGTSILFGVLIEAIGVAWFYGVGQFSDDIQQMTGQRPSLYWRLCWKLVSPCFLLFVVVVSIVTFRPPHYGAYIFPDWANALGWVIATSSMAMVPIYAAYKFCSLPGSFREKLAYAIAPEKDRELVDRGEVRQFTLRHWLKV
T2 sequence (P31645 whole entry): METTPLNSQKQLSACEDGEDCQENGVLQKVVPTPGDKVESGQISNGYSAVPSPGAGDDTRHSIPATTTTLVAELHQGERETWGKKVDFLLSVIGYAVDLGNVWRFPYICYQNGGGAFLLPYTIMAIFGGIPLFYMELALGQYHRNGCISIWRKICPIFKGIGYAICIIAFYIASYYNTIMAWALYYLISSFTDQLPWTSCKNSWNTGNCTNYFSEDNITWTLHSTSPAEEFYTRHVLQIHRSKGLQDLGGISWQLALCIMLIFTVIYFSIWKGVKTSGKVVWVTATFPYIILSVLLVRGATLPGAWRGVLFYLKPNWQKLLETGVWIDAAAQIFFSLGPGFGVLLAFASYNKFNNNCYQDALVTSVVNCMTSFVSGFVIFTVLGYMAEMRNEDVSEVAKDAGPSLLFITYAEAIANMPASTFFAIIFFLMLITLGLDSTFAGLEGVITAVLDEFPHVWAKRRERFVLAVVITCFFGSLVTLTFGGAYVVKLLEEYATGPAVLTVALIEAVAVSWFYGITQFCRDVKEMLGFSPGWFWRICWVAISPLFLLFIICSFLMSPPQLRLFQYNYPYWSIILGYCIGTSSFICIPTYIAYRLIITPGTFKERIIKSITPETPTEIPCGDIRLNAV

As to `CCNC(C)C(=O)c1ccccc1` (stereo not drawn) [NEC, N-ethyl-cathinone], on hDAT, the IC50 was 1.44 µM and the hDAT/hSERT inhibition ratio is on record as 157. Moreover, the “reduction of potency inhibiting DA uptake compared with α-PVP” value on hDAT (vs α-PVP) is around 10 fold. For the same compound, at hSERT, the IC50 was above 100 µM. Besides, the CC50 at 24 h in data set [1] is 3970 µM.

For the compound `CCCCCC(NCC)C(=O)c1ccccc1` (stereo not drawn) [NEHP, N-ethyl-heptedrone], at hDAT, the IC50 was determined as 0.251 µM and the hDAT/hSERT inhibition ratio was 426. For the same compound, the IC50 on hSERT was above 100 µM. Further, the CC50 at 24 h in data set [1] worked out at 1260 µM.

Regarding `CCNC(CC)C(=O)c1ccccc1` (stereo not drawn) [NEB, N-ethyl-buphedrone], the half-inhibitory concentration (IC50) against hDAT came out at 0.305 µM; on hSERT, 51.2 µM. Also, on hDAT, the hDAT/hSERT inhibition ratio is recorded as 168. For the same compound, the CC50 at 24 h in data set [1] amounted to 6240 µM.

Consider `CCCCC(NCC)C(=O)c1ccccc1` (stereo not drawn) [NEH, N-ethyl-hexedrone], for which the locomotor activity result with Swiss CD-1 mice [2] was “increase in locomotor activity”. In addition, on hDAT, half-maximal inhibition (IC50) was put at 0.073 µM and the hDAT/hSERT inhibition ratio is listed as 1457. Also, the “potency in inhibiting DA uptake compared with NEC” value at hDAT (vs NEC) is around 20 fold. In addition, the half-maximal inhibitory concentration (IC50) against hSERT was above 100 µM. Further, the CPP entry with Swiss CD-1 mice [3] is on record as “significant CPP”. Also, in data set [1], the CC50 at 24 h is 3280 µM.

`CCCC(NCC)C(=O)c1ccccc1` (stereo not drawn) [NEPD, N-ethyl-pentedrone]: on hDAT, the IC50 was 0.091 µM and the hDAT/hSERT inhibition ratio is 844. This compound also yielded a half-maximal inhibitory concentration (IC50) against hSERT of 76.4 µM. Besides, the CC50 at 24 h in data set [1] came to 3820 µM.
